Source: patent US20110190351A1, “Benzoimidazole Derivatives and Glycogen Synthase Kinase-3 Beta Inhibitors Containing the Same” (Oncotherapy Science, Inc., priority 2008, published 2011)

These compounds were tested against T1, GSK3beta (Homo sapiens, UniProt P49841) (assay: Z'-LYTE kinase assay (FRET, SER/THR 9 peptide)). Conditions: 0.04 ng/mcl GSKbeta (Invitrogen), 2 mcM SER/THR 9 peptide, 15 mcM ATP, 1 hour at room temperature, 1% DMSO.
T1 construct: purchased Invitrogen
Format: biochemical
Experimental: GSK3beta activity was measured in the presence or absence of compounds using Z′-LYTE kinase assay (Rodems S M, et al., Assay Drug Dev Technol. 1: 9-19, 2002.) kit with SER/THR 9 peptide (Invitrogen) following the manufacturer's instruction. The Z′-LYTE kinase assay kit employs a fluorescence resonance energy transfer (FRET) between two fluorophores, coumarin and fluorescein, attached to each end of a substrate peptide.
Test compounds were dissolved in DMSO at 12.5 mM and then serially diluted as the DMSO concentration in the assays to be 1%. The serially diluted compounds, 0.04 ng/mcl GSKbeta (Invitrogen) and 2 mcM SER/THR 9 peptide were reacted in a reaction buffer (50 mM HEPES pH 7.5, 0.01% Brij-35, 10 mM MgCl2, 1 mM EGTA, 15 mcM ATP). For 0% phosphorylation control, ATP was omitted from the reaction mixture. For 100% phosphorylation control, SER/THR 9 phosphopeptide was used in place of the SER/THR 9 peptide. Following 1 hour incubation at room temperature, the reaction was stopped by the addition of half assay volume of development solution and further incubated for 1 hour at room temperature. After adding the half assay volume of stop reagent, emission signals of coumarin and fluorescein were measured by Wallac EnVision 2103 multilabel reader (PerkinElmer). The extent of phosphorylation was determined according to the 0% and 100% phosphorylation control samples using the following equation:
C100%=coumarin emission signal of the 100% phosphorylation control C0%=coumarin emission signal of the 0% phosphorylation control F100%=fluorescein emission signal of the 100% phosphorylation control F0%=fluorescein emission signal of the 0% phosphorylation control
IC50 values were calculated by nonlinear four parameter fit using SigmaPlot, version 10.0 (Systat Software, Inc.).

T1 sequence (P49841 whole entry): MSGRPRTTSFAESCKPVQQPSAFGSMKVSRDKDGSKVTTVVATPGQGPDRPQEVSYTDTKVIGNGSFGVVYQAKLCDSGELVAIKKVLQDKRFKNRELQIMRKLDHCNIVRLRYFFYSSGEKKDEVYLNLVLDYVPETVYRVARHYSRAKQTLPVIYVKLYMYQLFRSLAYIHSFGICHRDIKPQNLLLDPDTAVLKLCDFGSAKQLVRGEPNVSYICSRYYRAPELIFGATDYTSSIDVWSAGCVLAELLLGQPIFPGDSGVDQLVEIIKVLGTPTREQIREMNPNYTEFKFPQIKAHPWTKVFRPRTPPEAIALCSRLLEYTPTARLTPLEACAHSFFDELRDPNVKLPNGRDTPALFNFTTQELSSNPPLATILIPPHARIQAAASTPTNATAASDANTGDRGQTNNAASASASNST

IC50 | Compound
52 nM | NS(=O)(=O)c1ccc(CNC(=O)c2ccc(O)c3[nH]c(-c4cccs4)nc23)cc1 [Example 8, 7-Hydroxy-N-(4-sulfamoylbenzyl)-2-(thiophen-2-yl)-1H-benzo[d]imidazole-4-carboxamide]
130 nM | O=C(NCCNc1ccccn1)c1ccc(O)c2[nH]c(-c3cccs3)nc12 [Example 11, 7-Hydroxy-N-[2-(pyridin-2-ylamino)ethyl]-2-(thiophen-2-yl)-1H-benzo[d]imidazole-4-carboxamide]
180 nM | O=C(NCCCNCCO)c1ccc(O)c2[nH]c(-c3cccs3)nc12 [Example 12, 7-Hydroxy-N-[3-(2-hydroxyethylamino)propyl]-2-(thiophen-2-yl)-1H-benzo[d]imidazole-4-carboxamide]
22 nM | COC(=O)C(CO)NC(=O)c1ccc(O)c2[nH]c(-c3cccs3)nc12 (stereo not drawn) [Example 15, Methyl 3-Hydroxy-2-[7-hydroxy-2-(thiophen-2-yl)-1H-benzo[d]imidazole-4-carboxamido]propanoate]
170 nM | O=C(N[C@@H](CO)Cc1c[nH]cn1)c1ccc(O)c2[nH]c(-c3cccs3)nc12 [Example 17, (R)-7-Hydroxy-N-[1-hydroxy-3-(1H-imidazol-4-yl)propan-2-yl]-2-(thiophen-2-yl)-1H-benzo[d]imidazole-4-carboxamide]
280 nM | NS(=O)(=O)c1ccc(CCNC(=O)c2ccc(O)c3[nH]c(-c4cccs4)nc23)cc1 [Example 21, 7-Hydroxy-N-(4-sulfamoylphenethyl)-2-(thiophen-2-yl)-1H-benzo[d]imidazole-4-carboxamide]
130 nM | Cn1cncc1CCNC(=O)c1ccc(O)c2[nH]c(-c3cccs3)nc12 [Example 35, 7-Hydroxy-N-[2-(1-methyl-1H-imidazol-5-yl)ethyl]-2-(thiophen-2-yl)-1H-benzo[d]imidazole-4-carboxamide]
180 nM | CN(C)CCNC(=O)c1ccc(O)c2[nH]c(-c3cccs3)nc12 [Example 36, N-[2-(dimethylamino)ethyl]-7-hydroxy-2-(thiophen-2-yl)-1H-benzo[d]imidazole-4-carboxamide]
38 nM | O=C(NCc1ccc(O)c(O)c1)c1ccc(O)c2[nH]c(-c3cccs3)nc12 [Example 37, N-(3,4-Dihydroxybenzyl)-7-hydroxy-2-(thiophen-2-yl)-1H-benzo[d]imidazole-4-carboxamide]
390 nM | O=C(NCCNS(=O)(=O)c1ccncc1)c1ccc(O)c2[nH]c(-c3cccs3)nc12 [Example 40, 7-Hydroxy-N-[2-(pyridine-4-sulfonamido)ethyl]-2-(thiophen-2-yl)-1H-benzo[d]imidazole-4-carboxamide]
74 nM | CC(=O)NCCNC(=O)c1ccc(O)c2[nH]c(-c3cccs3)nc12 [Example 42, N-(2-Acetamidoethyl)-7-hydroxy-2-(thiophen-2-yl)-1H-benzo[d]imidazole-4-carboxamide]
220 nM | CC(C)NCCCNC(=O)c1ccc(O)c2[nH]c(-c3cccs3)nc12 [Example 43, N-[3-(Isopropylamino)propyl]-7-hydroxy-2-(thiophen-2-yl)-1H-benzo[d]imidazole-4-carboxamide]
73 nM | NC(=O)c1ccc(OCCNC(=O)c2ccc(O)c3[nH]c(-c4cccs4)nc23)nc1 [Example 49, N-[2-(5-Carbamoylpyridin-2-yloxy)ethyl]-7-hydroxy-2-(thiophen-2-yl)-1H-benzo[d]imidazole-4-carboxamide]
260 nM | O=C(NCCc1ncc[nH]1)c1ccc(O)c2[nH]c(-c3cccs3)nc12 [Example 62, N-[2-(1H-Imidazol-2-yl)ethyl]-7-hydroxy-2-(thiophen-2-yl)-1H-benzo[d]imidazole-4-carboxamide]
22 nM | CS(=O)(=O)Nc1ccc(NCCNC(=O)c2ccc(O)c3[nH]c(-c4cccs4)nc23)nc1 [Example 69, 7-Hydroxy-N-{2-[5-(methylsulfonamido)pyridin-2-ylamino]ethyl}-2-(thiophen-2-yl)-1H-benzo[d]imidazole-4-carboxamide]
81 nM | CC(=O)Nc1ccc(NCCNC(=O)c2ccc(O)c3[nH]c(-c4cccs4)nc23)nc1 [Example 70, N-[2-(5-Acetamidopyridin-2-ylamino)ethyl]-7-hydroxy-2-(thiophen-2-yl)-1H-benzo[d]imidazole-4-carboxamide]
340 nM | O=C(N[C@@H](Cc1cnc[nH]1)C(=O)O)c1ccc(O)c2[nH]c(-c3cccs3)nc12 [Example 71, (S)-2-[7-Hydroxy-2-(thiophen-2-yl)-1H-benzo[d]imidazole-4-carboxamido]-3-(1H-imidazol-5-yl)propanoic Acid]
1.7 nM | O=C(NCCCn1ccnc1)c1ccc(O)c2[nH]c(-c3cccs3)nc12 [Example 76, N-[3-(1H-Imidazol-1-yl)propyl]-7-hydroxy-2-(thiophen-2-yl)-1H-benzo[d]imidazole-4-carboxamide]
30 nM | O=C(NCCCC1C=NNC1=O)c1ccc(O)c2[nH]c(-c3ccco3)nc12 (stereo not drawn) [Example 79]
19 nM | O=C(NCCc1ccc(O)c(O)c1)c1ccc(O)c2[nH]c(-c3ccco3)nc12 [Example 80, N-(3,4-Dihydroxyphenethyl)-2-(furan-2-yl)-7-hydroxy-1H-benzo[d]imidazole-4-carboxamide]
400 nM | O=C(Nc1ccc(O)cc1)c1ccc(O)c2[nH]c(C3CC3)nc12 [Example 91]
400 nM | Nc1ccc(CCNC(=O)c2ccc(O)c3nc(-c4ccccc4)[nH]c23)cc1 [Example 93, N-(4-Aminophenethyl)-4-hydroxy-2-phenyl-1H-benzo[d]imidazole-7-carboxamide]
150 nM | O=C(NCC(O)CO)c1ccc(O)c2nc(C3CC3)[nH]c12 (stereo not drawn) [Example 97, 2-Cyclopropyl-N-(2,3-dihydroxypropyl)-4-hydroxy-1H-benzo[d]imidazole-7-carboxamide]
120 nM | NS(=O)(=O)c1ccc(CCNC(=O)c2ccc(O)c3nc(C4CC4)[nH]c23)cc1 [Example 101, 2-Cyclopropyl-4-hydroxy-N-(4-sulfamoylphenethyl)-1H-benzo[d]imidazole-7-carboxamide]
3000 nM | O=C(/C=C/c1cnc[nH]1)Nc1ccc(O)c2[nH]c(-c3cccs3)nc12 [Example 120]
1700 nM | O=C(CCc1cnc[nH]1)Nc1ccc(O)c2[nH]c(-c3cccs3)nc12 [Example 121, N-(7-hydroxy-2-(thiophen-2-yl)-1H-benzo[d]imidazol-4-yl)-3-(1H-imidazol-5-yl)propanamide]
8100 nM | O=C(Nc1cc(O)ccc1C(=O)NC1CCCNC1)c1cccs1 (stereo not drawn) [Example 122, N-(5-hydroxy-2-(piperidin-3-ylcarbamoyl)phenyl)thiophene-2-carboxamide]
